According to US8680113B2, “BMI-1 protein expression modulators” (PTC Therapeutics, Inc., priority 2008, dated 2014):
Structures can show the parent of a compound that is named as a salt. One block for each compound: values may come before it.

How the values were obtained:
Bmi-1 [1] = assay: Cell Model Assay: Bmi-1 expression in U87-MG; assay type: cell-based; details: U87-MG (glioblastoma)
Experimental: (§1) Using assay conditions known to those skilled in the art, the ability of the compounds described herein to reduce Bmi-1 expression in HT1080 (fibrosarcoma), U87-MG (glioblastoma), T98G (glioblastoma), K562 (chronic myelogenous leukemia) and KG1 (acute myelogenous leukemia) cell lines was tested (at test compound concentrations calculated from the ELISA assay data shown in Example 1) compared to puromycin as a control to provide the EC50 values shown in Table 2. The term “ND” means that data was not determined.

Bmi-1 [2] = assay: Cell Model Assay: Bmi-1 expression in T98G; assay type: cell-based; details: T98G (glioblastoma)
Experimental: as §1

MCL-Rec1 = assay: Mantle Cell Lymphoma Assay: cytotoxicity, Rec-1; assay type: cell-based; details: 72 hrs in culture
Source text: (§2) MCL cell lines Jeko, Mino, and Rec-1 were provided by American Type Culture Collection: The Bioresource Center (Manassas, Va.). […] Carlsbad, Calif.) in T-75 culture flasks. Cell concentration was maintained between 2 to 3×10^5 cells/mL. Early passage cells (passages 2-4) were used for all experiments. Ficoll-Histopaque density sedimentation (Sigma Aldrich) was used for separation of debris and purification of cell lines prior to experiments. […] The cytotoxic effect of test compounds on the MCL-cell lines was assessed by measuring cell concentration and cell viability using a Beckman Coulter Vi-Cell Counter. Controls and treated cells were harvested and counted at day 3.

MM cell line = assay: Multiple Myeloma Assay; assay type: cell-based; details: 72 hrs in culture
MCL-Mino = assay: Mantle Cell Lymphoma Assay: cytotoxicity, Mino; assay type: cell-based; details: 72 hrs in culture
Source text: as §2

Bmi-1 [3] = assay: Cell Model Assay: Bmi-1 expression in K562; assay type: cell-based; details: K562 (chronic myelogenous leukemia)
Experimental: as §1

Bmi-1 [4] = assay: Cell Model Assay: Bmi-1 expression in KG1; assay type: cell-based; details: KG1 (acute myelogenous leukemia)
Experimental: as §1

Bmi-1 [5] = assay: Cell Model Assay: Bmi-1 expression in HT1080; assay type: cell-based, human; details: HT1080 (fibrosarcoma)
Experimental: as §1

MCL-Jeko = assay: Mantle Cell Lymphoma Assay: cytotoxicity, Jeko; assay type: cell-based; details: 72 hrs in culture
Source text: as §2

Bmi-1 [6] = assay: Sandwich ELISA Assay (Bmi-1 ELISA in HT-1080 cells); assay type: cell-based, human
Outline: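 Lysate Bmi-1 was quantified against a recombinant GST-Bmi-1 standard (0-8000 pg/mL) by sandwich ELISA read at OD450 with OD570 reference. The ELISA used mouse monoclonal capture, rabbit anti-Bmi-1, HRP anti-rabbit IgG and TMB. Before lysis, HT-1080 cells seeded at 8000/well were exposed to compounds for 40-48 h at 37°C with 0.5% final DMSO.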

[7] = tested on: Jeko, Mino and Rec-1 cells; assay: cells; assay type: cell-based; details: 72 h, read-out: decrease in cell viability

melting point: 232 to 240 °C
SMILES: COc1cc(Cl)c(Nc2nc(-c3c(C)nc4ncccn34)cs2)c(Cl)c1 (as salt: HBr) [Cpd 19, N-(2,6-dichloro-4-methoxyphenyl)-4-(2-methylimidazo[1,2-a]pyrimidin-3-yl)thiazol-2-amine]

EC50 (Bmi-1 [1]): 1200 nM
EC50 (Bmi-1 [2]): 91 nM
EC50 (Bmi-1 [3]): 55 nM
EC50 (Bmi-1 [4]): 128 nM
EC50 (Bmi-1 [5]): 410 nM
IC50 (Bmi-1 [6]): < 500 nM
SMILES: COc1cc(C)c(Nc2nc(-c3cnc4ccc(Cl)cn34)cs2)c(C)c1 [Cpd 27, 4-(6-chloroimidazo[1,2-a]pyridine-3-yl)-N-(4-methoxy-2,6-dimethylphenyl)thiazol-2-amine]
Cell Concentration, MCL-Rec1 (MCL-Rec1; dose 0.004 μM): 1.66 ± 0.06 ×10^6
Cell Concentration, MCL-Rec1 (MCL-Rec1; dose 0.037 μM): 1.65 ± 0.03 ×10^6
Cell Concentration, MCL-Rec1 (MCL-Rec1; dose 0.11 μM): 1.63 ± 0.04 ×10^6
Cell Concentration, MCL-Rec1 (MCL-Rec1; dose 0.33 μM): 1.53 ± 0.01 ×10^6
Cell Concentration, MCL-Rec1 (MCL-Rec1; dose 1 μM): 1.24 ± 0.03 ×10^6
Cell Concentration, MCL-Rec1 (MCL-Rec1; dose 3 μM): 0.09 ± 0.01 ×10^6
Cell Concentration, MM cell line (MM cell line; dose 0.004 μM): 1.46 ± 0.01 ×10^6
Cell Concentration, MM cell line (MM cell line; dose 0.037 μM): 1.36 ± 0.07 ×10^6
Cell Concentration, MM cell line (MM cell line; dose 0.11 μM): 1.30 ± 0.01 ×10^6
Cell Concentration, MM cell line (MM cell line; dose 0.33 μM): 0.80 ± 0.01 ×10^6
Cell Concentration, MM cell line (MM cell line; dose 1 μM): 0.17 ± 0.00 ×10^6
Cell Concentration, MM cell line (MM cell line; dose 3 μM): 0.2 ± 0.05 ×10^6
Cell Concentration, MCL-Mino (MCL-Mino; dose 0.004 μM): 0.62 ± 0.02 ×10^6
Cell Concentration, MCL-Mino (MCL-Mino; dose 0.037 μM): 0.64 ± 0.01 ×10^6
Cell Concentration, MCL-Mino (MCL-Mino; dose 0.11 μM): 0.59 ± 0.03 ×10^6
Cell Concentration, MCL-Mino (MCL-Mino; dose 0.33 μM): 0.57 ± 0.01 ×10^6
Cell Concentration, MCL-Mino (MCL-Mino; dose 1 μM): 0.41 ± 0.00 ×10^6
Cell Concentration, MCL-Mino (MCL-Mino; dose 3 μM): 0.09 ± 0.00 ×10^6
Cell Concentration, MCL-Jeko (MCL-Jeko; dose 0.004 μM): 1.98 ± 0.03 ×10^6
Cell Concentration, MCL-Jeko (MCL-Jeko; dose 0.037 μM): 1.99 ± 0.02 ×10^6
Cell Concentration, MCL-Jeko (MCL-Jeko; dose 0.11 μM): 1.96 ± 0.05 ×10^6
Cell Concentration, MCL-Jeko (MCL-Jeko; dose 0.33 μM): 1.77 ± 0.02 ×10^6
Cell Concentration, MCL-Jeko (MCL-Jeko; dose 1 μM): 1.46 ± 0.02 ×10^6
Cell Concentration, MCL-Jeko (MCL-Jeko; dose 3 μM): 0.34 ± 0.04 ×10^6

SMILES: Cc1nc2ncccn2c1-c1csc(Nc2ccc(Cl)cc2)n1 [Cpd 49, N-(4-chlorophenyl)-4-(2-methylimidazo[1,2-a]pyrimidin-3-yl)-1,3-thiazol-2-amine]
viability at 0.004 µM (MCL-Rec1; Homo sapiens, Rec1, dose 0.004 μM, read-out: Cell Viability, MCL-Rec1): 89.2 ± 0.33%
viability at 0.037 µM (MCL-Rec1; Homo sapiens, Rec1, dose 0.037 μM, read-out: Cell Viability, MCL-Rec1): 89.07 ± 0.33%
viability at 0.11 µM (MCL-Rec1; Homo sapiens, Rec1, dose 0.11 μM, read-out: Cell Viability, MCL-Rec1): 90.07 ± 0.1%
viability at 0.33 µM (MCL-Rec1; Homo sapiens, Rec1, dose 0.33 μM, read-out: Cell Viability, MCL-Rec1): 81.93 ± 0.03%
viability at 1 µM (MCL-Rec1; Homo sapiens, Rec1, dose 1 μM, read-out: Cell Viability, MCL-Rec1): 51 ± 1.83%
viability at 3 µM (MCL-Rec1; Homo sapiens, Rec1, dose 3 μM, read-out: Cell Viability, MCL-Rec1): 12 ± 0.95%
Cell Concentration, MCL-Rec1 (MCL-Rec1; dose 0.004 μM): 0.83 ± 0.01 ×10^6
Cell Concentration, MCL-Rec1 (MCL-Rec1; dose 0.037 μM): 0.87 ± 0.01 ×10^6
Cell Concentration, MCL-Rec1 (MCL-Rec1; dose 0.11 μM): 0.84 ± 0.01 ×10^6
Cell Concentration, MCL-Rec1 (MCL-Rec1; dose 0.33 μM): 0.58 ± 0.00 ×10^6
Cell Concentration, MCL-Rec1 (MCL-Rec1; dose 1 μM): 0.21 ± 0.01 ×10^6
Cell Concentration, MCL-Rec1 (MCL-Rec1; dose 3 μM): 0.04 ± 0.00 ×10^6
Cell Concentration, MM cell line (MM cell line; dose 0.004 μM): 1.22 ± 0.05 ×10^6
viability at 0.004 µM (MM cell line; dose 0.004 μM): 89.63 ± 0.35%
Cell Concentration, MM cell line (MM cell line; dose 0.037 μM): 1.09 ± 0.05 ×10^6
viability at 0.037 µM (MM cell line; dose 0.037 μM): 89.53 ± 0.46%
Cell Concentration, MM cell line (MM cell line; dose 0.11 μM): 0.85 ± 0.05 ×10^6
viability at 0.11 µM (MM cell line; dose 0.11 μM): 84.7 ± 0.88%
Cell Concentration, MM cell line (MM cell line; dose 0.33 μM): 0.38 ± 0.01 ×10^6
viability at 0.33 µM (MM cell line; dose 0.33 μM): 69.6 ± 0.85%
Cell Concentration, MM cell line (MM cell line; dose 1 μM): 0.21 ± 0.01 ×10^6
viability at 1 µM (MM cell line; dose 1 μM): 55.5 ± 2.4%
Cell Concentration, MM cell line (MM cell line; dose 3 μM): 0.22 ± 0.01 ×10^6
viability at 3 µM (MM cell line; dose 3 μM): 55.5 ± 1.79%
viability at 0.004 µM (MCL-Mino; Homo sapiens, MINO, dose 0.004 μM, read-out: Cell Viability, MCL-Mino): 94.7 ± 0.44%
viability at 0.037 µM (MCL-Mino; Homo sapiens, MINO, dose 0.037 μM, read-out: Cell Viability, MCL-Mino): 91.2 ± 1%
viability at 0.11 µM (MCL-Mino; Homo sapiens, MINO, dose 0.11 μM, read-out: Cell Viability, MCL-Mino): 75.6 ± 1.49%
viability at 0.33 µM (MCL-Mino; Homo sapiens, MINO, dose 0.33 μM, read-out: Cell Viability, MCL-Mino): 34.4 ± 2.46%
viability at 1 µM (MCL-Mino; Homo sapiens, MINO, dose 1 μM, read-out: Cell Viability, MCL-Mino): 15.3 ± 1.13%
viability at 3 µM (MCL-Mino; Homo sapiens, MINO, dose 3 μM, read-out: Cell Viability, MCL-Mino): 12.7 ± 1.47%
Cell Concentration, MCL-Mino (MCL-Mino; dose 0.004 μM): 1.87 ± 0.04 ×10^6
Cell Concentration, MCL-Mino (MCL-Mino; dose 0.037 μM): 1.72 ± 0.09 ×10^6
Cell Concentration, MCL-Mino (MCL-Mino; dose 0.11 μM): 0.97 ± 0.06 ×10^6
Cell Concentration, MCL-Mino (MCL-Mino; dose 0.33 μM): 0.15 ± 0.06 ×10^6
Cell Concentration, MCL-Mino (MCL-Mino; dose 1 μM): 0.07 ± 0.01 ×10^6
Cell Concentration, MCL-Mino (MCL-Mino; dose 3 μM): 0.06 ± 0.01 ×10^6
cytotoxicity at 0.08 µM [7]: 70 to 90%
Cell Concentration, MCL-Jeko (MCL-Jeko; dose 0.004 μM): 1.83 ± 0.01 ×10^6
viability at 0.004 µM (MCL-Jeko; dose 0.004 μM, read-out: Cell Viability, MCL-Jeko): 74.33 ± 0.53%
Cell Concentration, MCL-Jeko (MCL-Jeko; dose 0.037 μM): 1.94 ± 0.06 ×10^6
viability at 0.037 µM (MCL-Jeko; dose 0.037 μM, read-out: Cell Viability, MCL-Jeko): 74.7 ± 1.08%
Cell Concentration, MCL-Jeko (MCL-Jeko; dose 0.11 μM): 2.06 ± 0.04 ×10^6
viability at 0.11 µM (MCL-Jeko; dose 0.11 μM, read-out: Cell Viability, MCL-Jeko): 78.73 ± 0.33%
Cell Concentration, MCL-Jeko (MCL-Jeko; dose 0.33 μM): 1.82 ± 0.06 ×10^6
viability at 0.33 µM (MCL-Jeko; dose 0.33 μM, read-out: Cell Viability, MCL-Jeko): 73.2 ± 0.58%
Cell Concentration, MCL-Jeko (MCL-Jeko; dose 1 μM): 0.66 ± 0.05 ×10^6
viability at 1 µM (MCL-Jeko; dose 1 μM, read-out: Cell Viability, MCL-Jeko): 39.6 ± 2.28%
Cell Concentration, MCL-Jeko (MCL-Jeko; dose 3 μM): 0.06 ± 0.01 ×10^6
viability at 3 µM (MCL-Jeko; dose 3 μM, read-out: Cell Viability, MCL-Jeko): 5.4 ± 0.61%
IC50 (Bmi-1 [6]): < 500 nM
